Test results from US20210009564A1, “CALPAIN MODULATORS AND THERAPEUTIC USES THEREOF” (BLADE THERAPERTICS, INC., priority 2018, published 2021).
Counter-ions that a name gives are not always drawn.

Legend:
[1] = biological target: T1, Human Calpain 1/NS1 (Homo sapiens, UniProt P07384); assay: Calpain inhibition, continuous fluorescence (FRET substrate) assay, calpain 1; format: biochemical; settings: SensoLyte 520 FRET substrate, 25C
T1 sequence (P07384 1-714): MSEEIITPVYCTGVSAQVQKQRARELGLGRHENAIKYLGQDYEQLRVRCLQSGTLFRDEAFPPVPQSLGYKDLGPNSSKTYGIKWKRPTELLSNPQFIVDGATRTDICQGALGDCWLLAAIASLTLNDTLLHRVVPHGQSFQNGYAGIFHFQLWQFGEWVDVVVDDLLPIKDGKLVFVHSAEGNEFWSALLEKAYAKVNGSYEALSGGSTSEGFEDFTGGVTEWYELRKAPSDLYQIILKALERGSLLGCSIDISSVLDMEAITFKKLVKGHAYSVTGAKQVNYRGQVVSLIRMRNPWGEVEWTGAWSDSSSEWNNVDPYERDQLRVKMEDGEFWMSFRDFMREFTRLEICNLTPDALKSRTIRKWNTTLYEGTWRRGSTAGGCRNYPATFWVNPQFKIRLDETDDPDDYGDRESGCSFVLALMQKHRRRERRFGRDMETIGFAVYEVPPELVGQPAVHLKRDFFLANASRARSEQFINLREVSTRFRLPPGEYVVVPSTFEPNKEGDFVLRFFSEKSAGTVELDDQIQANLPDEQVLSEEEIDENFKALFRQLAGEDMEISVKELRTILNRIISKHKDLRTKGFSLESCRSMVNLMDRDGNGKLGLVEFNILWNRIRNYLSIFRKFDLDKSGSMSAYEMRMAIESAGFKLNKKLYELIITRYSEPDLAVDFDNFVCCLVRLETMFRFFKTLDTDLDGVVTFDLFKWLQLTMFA
T1 sequence (P04632 1-268 partner): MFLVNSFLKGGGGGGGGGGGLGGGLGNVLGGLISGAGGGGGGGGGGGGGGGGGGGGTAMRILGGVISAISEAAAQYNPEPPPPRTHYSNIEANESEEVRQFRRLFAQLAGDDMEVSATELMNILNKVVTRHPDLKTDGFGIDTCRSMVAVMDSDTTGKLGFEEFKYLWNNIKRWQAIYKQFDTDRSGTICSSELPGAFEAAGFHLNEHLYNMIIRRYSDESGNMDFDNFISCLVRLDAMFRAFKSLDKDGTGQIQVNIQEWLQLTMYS
Summary of the method: (§1)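 Continuous FRET read-out (ex 490/em 520 nm) of 5-FAM/QXL 520 substrate cleavage, started by adding substrate with CaCl2 for in-situ activation after enzyme–inhibitor preincubation at 25 °C. Buffer was Tris 50 mM pH 7.5, NaCl 100 mM, DTT 1 mM. IC50 fitted (4-parameter) from rates over 1-5 min.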

[2] = system: Calpain activity in SH-SY5Y cells; assay: SH-SY5Y Suc-LLVY-AMC fluorescence assay; format: cell-based; settings: Homo sapiens, read-out: SH-SY5Y + AMC IC50
[3] = system: Calpain activity in SH-SY5Y cells; assay: SH-SY5Y spectrin breakdown product (SBDP-150) western blot assay; format: cell-based; settings: Homo sapiens, read-out: SH-SY5Y Spectrin IC50
[4] = biological target: T2, Human Calpain 9/NS1 (Homo sapiens, UniProt O14815); assay: Calpain inhibition, continuous fluorescence (FRET substrate) assay, calpain 9; format: biochemical; settings: SensoLyte 520 FRET substrate, 25C
T2 sequence (O14815 1-690): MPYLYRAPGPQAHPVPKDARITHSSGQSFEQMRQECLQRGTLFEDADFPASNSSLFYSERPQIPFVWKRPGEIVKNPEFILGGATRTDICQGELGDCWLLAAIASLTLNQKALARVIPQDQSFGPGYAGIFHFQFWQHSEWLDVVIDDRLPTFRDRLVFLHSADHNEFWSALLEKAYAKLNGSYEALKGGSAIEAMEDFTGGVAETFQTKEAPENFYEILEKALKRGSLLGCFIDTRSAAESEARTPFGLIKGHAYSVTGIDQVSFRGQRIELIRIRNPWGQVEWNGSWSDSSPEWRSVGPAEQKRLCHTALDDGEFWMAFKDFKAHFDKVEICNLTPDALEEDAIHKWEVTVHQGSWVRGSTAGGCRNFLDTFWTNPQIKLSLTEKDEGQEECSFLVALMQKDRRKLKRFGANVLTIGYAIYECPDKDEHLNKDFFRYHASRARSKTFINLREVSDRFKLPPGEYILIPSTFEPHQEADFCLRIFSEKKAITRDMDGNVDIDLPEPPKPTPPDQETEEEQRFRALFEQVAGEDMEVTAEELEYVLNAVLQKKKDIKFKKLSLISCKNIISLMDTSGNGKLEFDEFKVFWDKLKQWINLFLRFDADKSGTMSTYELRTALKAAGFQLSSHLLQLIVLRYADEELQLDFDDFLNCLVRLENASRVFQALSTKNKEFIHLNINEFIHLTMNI
T2 sequence (P04632 1-268 partner): T1 sequence (P04632 1-268 partner)
Summary of the method: as §1

[5] = biological target: T3, Human Calpain 2/NS1 (Homo sapiens, UniProt P17655); assay: Calpain inhibition, continuous fluorescence (FRET substrate) assay, calpain 2; format: biochemical; settings: SensoLyte 520 FRET substrate, 25C
T3 sequence (P17655 1-700): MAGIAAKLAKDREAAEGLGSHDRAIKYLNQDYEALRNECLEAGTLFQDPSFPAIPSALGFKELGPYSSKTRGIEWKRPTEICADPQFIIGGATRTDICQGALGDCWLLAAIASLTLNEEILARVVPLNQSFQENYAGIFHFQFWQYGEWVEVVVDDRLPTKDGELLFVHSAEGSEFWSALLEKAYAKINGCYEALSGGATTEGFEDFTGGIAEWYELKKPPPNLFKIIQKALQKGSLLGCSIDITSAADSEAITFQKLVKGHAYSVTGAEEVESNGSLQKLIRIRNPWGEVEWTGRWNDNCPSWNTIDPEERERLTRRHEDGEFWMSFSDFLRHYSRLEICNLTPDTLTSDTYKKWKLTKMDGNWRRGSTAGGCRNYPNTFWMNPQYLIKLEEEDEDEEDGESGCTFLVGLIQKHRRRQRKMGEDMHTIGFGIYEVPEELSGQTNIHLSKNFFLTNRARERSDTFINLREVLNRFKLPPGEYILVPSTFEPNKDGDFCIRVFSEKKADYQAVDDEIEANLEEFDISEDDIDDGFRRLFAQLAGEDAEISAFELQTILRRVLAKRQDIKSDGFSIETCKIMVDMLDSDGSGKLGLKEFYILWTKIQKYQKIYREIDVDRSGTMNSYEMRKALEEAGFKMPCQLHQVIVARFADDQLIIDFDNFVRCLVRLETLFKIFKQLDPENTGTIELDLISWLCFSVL
T3 sequence (P04632 1-268 partner): T1 sequence (P04632 1-268 partner)
Summary of the method: as §1

[6] = SH-SY5Y cells, 100 uM Suc-LLVY-AMC
[7] = SH-SY5Y cells, 25 uM A23187, SBDP-150 western blot

| IC50 [1] [µM] | IC50 [2, 6] [µM] | IC50 [3, 7] [µM] | IC50 [4] [µM] | IC50 [5] [µM] | SMILES | IC50 ([2]; SH-SY5Y) [µM] | IC50 ([3]; SH-SY5Y) [µM] |
| --- | --- | --- | --- | --- | --- | --- | --- |
| < 3 | < 10 | 10 to 25 | < 3 | < 3 | Cc1cc(-c2nn(C(F)F)cc2C(=O)NC(Cc2ccccc2)C(=O)C(N)=O)c(C)o1 (stereo not drawn) [Compound 24, N-(4-AMINO-3,4-DIOXO-1-PHENYLBUTAN-2-YL)-1-(DIFLUOROMETHYL)-3-(2,5-DIMETHYLFURAN-3-YL)-1H-PYRAZOLE-4-CARBOXAMIDE] | – | – |
| < 3 | < 10 | > 25 | < 3 | < 3 | Cn1cc(C(=O)NC(Cc2ccccc2)C(=O)C(=O)O)c(-c2ccccc2F)n1 (stereo not drawn) [Compound 65, 3-(3-(2-FLUOROPHENYL)-1-METHYL-1H-PYRAZOLE-4-CARBOXAMIDO)-2-OXO-4-PHENYLBUTANOIC ACID] | – | – |
| < 3 | < 10 | < 10 | < 3 | < 3 | COC(=O)C(=O)C(Cc1ccccc1)NC(=O)c1oc(C)nc1-c1ccccc1F (stereo not drawn) [Compound 42, METHYL 3-(4-(2-FLUOROPHENYL)-2-METHYLOXAZOLE-5-CARBOXAMIDO)-2-OXO-4-PHENYLBUTANOATE] | – | – |
| < 3 | 10 to 25 | 10 to 25 | < 3 | < 3 | Cn1cc(C(=O)NC(Cc2ccccc2)C(=O)C(N)=O)c(-c2cccc3nn(C)cc23)n1 (stereo not drawn) [Compound 69, N-(4-AMINO-3,4-DIOXO-1-PHENYLBUTAN-2-YL)-1-METHYL-3-(2-METHYL-2H-INDAZOL-4-YL)-1H-PYRAZOLE-4-CARBOXAMIDE] | – | – |
| < 3 | < 10 | < 10 | < 3 | < 3 | Cc1nc(-c2ccccc2F)c(C(=O)NC(Cc2ccccc2F)C(=O)C(N)=O)o1 (stereo not drawn) [Compound 80, N-(4-AMINO-1-(2-FLUOROPHENYL)-3,4-DIOXOBUTAN-2-YL)-4-(2-FLUOROPHENYL)-2-METHYLOXAZOLE-5-CARBOXAMIDE] | – | – |
| < 3 | > 25 | 10 to 25 | < 3 | < 3 | Cn1cc(C(=O)NC(Cc2ccc(C(F)(F)F)cc2)C(=O)C(N)=O)c(-c2ccccc2F)n1 (stereo not drawn) [Compound 95, N-(4-AMINO-3,4-DIOXO-1-(4-(TRIFLUOROMETHYL)PHENYL)BUTAN-2-YL)-3-(2-FLUOROPHENYL)-1-METHYL-1H-PYRAZOLE-4-CARBOXAMIDE] | – | – |
| > 10 | 10 to 25 | > 25 | > 10 | 3 to 10 | Cn1cc(C(=O)NC(Cc2ccccc2)C(=O)C(N)=O)c(N2CCNCC2)n1 (stereo not drawn) [Compound 2, N-(4-AMINO-3,4-DIOXO-1-PHENYLBUTAN-2-YL)-1-METHYL-3-(PIPERAZIN-1-YL)-1H-PYRAZOLE-4-CARBOXAMIDE HYDROCHLORIDE] | – | – |
| 3 to 10 | > 25 | > 25 | < 3 | < 3 | COc1cccc(-c2nn(C)cc2C(=O)NC(Cc2ccccc2)C(=O)C(N)=O)c1OC (stereo not drawn) [Compound 12, N-(4-AMINO-3,4-DIOXO-1-PHENYLBUTAN-2-YL)-3-(2,3-DIMETHOXYPHENYL)-1-METHYL-1H-PYRAZOLE-4-CARBOXAMIDE] | – | – |
| < 3 | < 10 | < 10 | < 3 | < 3 | Cc1nc(-c2cccc3ccccc23)c(C(=O)NC(Cc2ccccc2)C(=O)C(N)=O)o1 (stereo not drawn) [Compound 58, N-(4-AMINO-3,4-DIOXO-1-PHENYLBUTAN-2-YL)-2-METHYL-4-(NAPHTHALEN-1-YL)OXAZOLE-5-CARBOXAMIDE] | – | – |
| < 3 | < 10 | < 10 | < 3 | < 3 | Cc1nc(-c2ccccc2F)c(C(=O)NC(Cc2ccc(Cl)cc2)C(=O)C(N)=O)o1 (stereo not drawn) [Compound 96, N-(4-AMINO-1-(4-CHLOROPHENYL)-3,4-DIOXOBUTAN-2-YL)-4-(2-FLUOROPHENYL)-2-METHYLOXAZOLE-5-CARBOXAMIDE] | – | – |
| < 3 | < 10 | > 25 | < 3 | < 3 | Cn1cc(C(=O)NC(Cc2ccccc2)C(=O)C(=O)O)c(-c2cccc(F)c2)n1 (stereo not drawn) [Compound 72, 3-(3-(3-FLUOROPHENYL)-1-METHYL-1H-PYRAZOLE-4-CARBOXAMIDO)-2-OXO-4-PHENYLBUTANOIC ACID] | – | – |
| < 3 | < 10 | 10 to 25 | < 3 | < 3 | NC(=O)C(=O)C(Cc1ccccc1)NC(=O)c1cnoc1-c1cccc2c1OCO2 (stereo not drawn) [Compound 5, N-(4-AMINO-3,4-DIOXO-1-PHENYLBUTAN-2-YL)-5-(BENZO[d][1,3]DIOXOL-4-YL)ISOXAZOLE-4-CARBOXAMIDE] | – | – |
| < 3 | > 25 | 10 to 25 | < 3 | < 3 | Cn1cc(C(=O)NC(Cc2ccccc2)C(=O)C(N)=O)c(-n2cnc3ccccc32)n1 (stereo not drawn) [Compound 9, N-(4-AMINO-3,4-DIOXO-1-PHENYLBUTAN-2-YL)-3-(1H-BENZO[D]IMIDAZOL-1-YL)-1-METHYL-1H-PYRAZOLE-4-CARBOXAMIDE] | – | – |
| < 3 | < 10 | 10 to 25 | < 3 | < 3 | Cn1cc(C(=O)NC(Cc2ccccc2)C(=O)C(N)=O)c(-c2cccc3ocnc23)n1 (stereo not drawn) [Compound 68, N-(4-AMINO-3,4-DIOXO-1-PHENYLBUTAN-2-YL)-3-(BENZO[D]OXAZOL-4-YL)-1-METHYL-1H-PYRAZOLE-4-CARBOXAMIDE] | – | – |

| SMILES | IC50 [1] [µM] | IC50 [2, 6] [µM] | IC50 [3, 7] [µM] | IC50 [4] [µM] | IC50 [5] [µM] | IC50 ([2]; SH-SY5Y) [µM] | IC50 ([3]; SH-SY5Y) [µM] |
| --- | --- | --- | --- | --- | --- | --- | --- |
| Cc1cc(C(=O)NC(Cc2ccccc2)C(=O)C(N)=O)n(-c2nccc(-c3ccccc3)n2)n1 (stereo not drawn) [Compound 45, N-(4-AMINO-3,4-DIOXO-1-PHENYLBUTAN-2-YL)-3-METHYL-1-(4-PHENYLPYRIMIDIN-2-YL)-1H-PYRAZOLE-5-CARBOXAMIDE] | < 3 | – | – | < 3 | < 3 | < 10 | 10 to 25 |
